Some test systems named below: OVCAR-8; T47D; NCI-H226; SF-295; HCT-15; MDA-MB-435; SK-MEL-5; Malme-3M; EKVX; A549; PC-3; SF-268; RPMI-8226; SK-OV-3; OVCAR-4; HT-29; MDA-MB-231; SF-539; NCI-H460; SNB-75.
Common to all, as to experiment: inhibition of tumour cell growth, NCI panel, 48 h

The record followed here is ChEMBL document CHEMBL1201862, “PubChem BioAssay data set” (2004).

Structures are written as SMILES.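 1) Cells in 96-well plates. 2) Compound, 48 h, 5 concentrations. 3) Linear interpolation between surrounding doses. 4) Unreached endpoint = highest concentration. GI50: concentration for 50% inhibition of growth.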 Active and inactive are the calls of the source. Rule as the data show it: active = GI50 up to about 1.1 µM and inactive = higher. Where only a bound is given, the exact number is not on record here.

Regarding `COC(=O)c1c(C)c2c(c(C)c1O)OC(=O)c1c(C)cc(O)c(C=O)c1O2`, the GI50 is > 100 µM (inactive) in the assay with OVCAR-8; > 100 µM (inactive) in the assay on T47D; > 100 µM (inactive) in the assay on NCI-H226; > 100 µM (inactive) in the assay on SF-295; over 100 µM in the assay on HCT-15; > 100 µM (inactive) with MDA-MB-435. Further, the GI50 with SK-MEL-5, in the assay on Malme-3M, in the assay on EKVX, in the assay on A549, in the assay on PC-3 and in the assay with SF-268 was > 100 µM (inactive) each time. Further, the GI50 in the assay with RPMI-8226 was > 100 µM (inactive); with SK-OV-3, 20 µM (inactive); with OVCAR-4, > 100 µM (inactive); in the assay on HT-29 it was > 100 µM (inactive); in the assay with MDA-MB-231, > 100 µM (inactive); in the assay on SF-539, > 100 µM (inactive). In the assay on NCI-H460, the GI50 is > 100 µM (inactive).

Consider `COc1ncnc2c1cnn2Cc1cn(CCCCO)nn1`, for which the GI50 in the assay on OVCAR-8 is > 100 µM (inactive); in the assay on T47D, > 100 µM (inactive); in the assay on NCI-H226, > 100 µM (inactive); in the assay with SF-295 it was > 100 µM (inactive); with HCT-15, over 100 µM; in the assay on MDA-MB-435, > 100 µM (inactive). Also, the GI50 in the assay with SK-MEL-5, in the assay with Malme-3M, in the assay on EKVX, in the assay on A549, in the assay on PC-3 and in the assay with SF-268 was > 100 µM (inactive) each time. For the same compound, the GI50 in the assay with RPMI-8226, in the assay on SK-OV-3, in the assay on OVCAR-4, in the assay on HT-29, in the assay with MDA-MB-231 and in the assay on SF-539 was > 100 µM (inactive) in each case. Further, the GI50 with NCI-H460 was > 100 µM (inactive).

Consider `COc1ccc(CC2OC3(CCCCC3)CC3CCCCN32)cc1` (stereo not drawn), for which the GI50 with OVCAR-8 was 40.9 µM (inactive); in the assay on T47D it was > 100 µM (inactive); in the assay on NCI-H226, 53 µM (inactive); with SF-295, > 100 µM (inactive); with HCT-15 it was over 100 µM; with MDA-MB-435, 50 µM (inactive). The GI50 was 49.2 µM (inactive) with SK-MEL-5; > 100 µM (inactive) with Malme-3M; > 100 µM (inactive) with EKVX; 91.2 µM (inactive) with SNB-75; > 100 µM (inactive) in the assay on A549; > 100 µM (inactive) in the assay on PC-3. The GI50 was > 100 µM (inactive) with SF-268; 23.4 µM (inactive) with RPMI-8226; > 100 µM (inactive) in the assay with SK-OV-3; > 100 µM (inactive) in the assay with OVCAR-4; 57.4 µM (inactive) in the assay on HT-29; 10.3 µM (inactive) in the assay with MDA-MB-231. In addition, the GI50 with NCI-H460 is > 100 µM (inactive).

With `COc1c(-c2ccc(O)c(O)c2)oc2c(O)c(O)cc(O)c2c1=O`, the GI50 in the assay with OVCAR-8 was > 100 µM (inactive); in the assay with T47D, 67 µM (inactive); in the assay with NCI-H226, > 100 µM (inactive); in the assay on SF-295, 39.1 µM (inactive); in the assay with HCT-15 it was 85.5 µM; in the assay on MDA-MB-435, 31 µM (inactive). Also, the GI50 in the assay on SK-MEL-5 is 45.4 µM (inactive); in the assay on Malme-3M, > 100 µM (inactive); in the assay with EKVX it was > 100 µM (inactive); in the assay with A549 it was 69.2 µM (inactive); in the assay on PC-3, > 100 µM (inactive); in the assay with RPMI-8226, 31.8 µM (inactive). In addition, the GI50 is 85.9 µM (inactive) in the assay with SK-OV-3; 50.6 µM (inactive) in the assay with OVCAR-4; 20 µM (inactive) in the assay on HT-29; > 100 µM (inactive) in the assay on MDA-MB-231; > 100 µM (inactive) in the assay on SF-539; 55.6 µM (inactive) with NCI-H460.

`Cc1ccc(/C=N\NC(=O)c2ccncc2)s1`: the GI50 with OVCAR-8 was > 100 µM (inactive); in the assay with T47D, > 100 µM (inactive); in the assay with NCI-H226 it was > 100 µM (inactive); with SF-295, > 100 µM (inactive); with HCT-15, over 100 µM; with MDA-MB-435, > 100 µM (inactive). Also, the GI50 in the assay on SK-MEL-5, in the assay with Malme-3M, with EKVX, in the assay with A549, with PC-3 and in the assay on SF-268 was > 100 µM (inactive) each time. Besides, the GI50 in the assay on RPMI-8226, in the assay on SK-OV-3, in the assay on OVCAR-4, with HT-29, with MDA-MB-231 and in the assay with SF-539 was > 100 µM (inactive) each time. For the same compound, the GI50 with NCI-H460 is > 100 µM (inactive).

On to `CC1=C(OC2OC(CO)C(O)C(O)C2O)C(=O)C[C@H]2C1=CC[C@@H]1[C@@]2(C)C(=O)C[C@]2(C)[C@@H]([C@@](C)(O)C(=O)CCC(C)(C)O)[C@H](O)C[C@@]12C` (stereo partly drawn), for which the GI50 in the assay with OVCAR-8 was > 100 µM (inactive); in the assay on T47D, > 100 µM (inactive); with NCI-H226 it was > 100 µM (inactive); with SF-295, > 100 µM (inactive); with HCT-15, over 100 µM; in the assay with MDA-MB-435, > 100 µM (inactive). The GI50 with SK-MEL-5, with Malme-3M, in the assay on EKVX, in the assay with SNB-75, in the assay on A549 and with PC-3 was > 100 µM (inactive) throughout. In addition, the GI50 with SF-268, in the assay with SK-OV-3, with OVCAR-4, with HT-29, in the assay with MDA-MB-231 and with SF-539 was > 100 µM (inactive) throughout. Also, the GI50 in the assay on NCI-H460 is > 100 µM (inactive).

Consider `CC1=NN=C(N)N/C1=C\C(Sc1ccc(Cl)cc1)c1ccc(Cl)cc1Cl` (stereo not drawn), for which the GI50 in the assay on OVCAR-8 is 13.5 µM (inactive); in the assay with T47D it was 14.2 µM (inactive); in the assay with NCI-H226, 15.1 µM (inactive); with SF-295, 16.9 µM (inactive); in the assay on HCT-15 it was 10.9 µM; with MDA-MB-435 it was 18.1 µM (inactive). In addition, the GI50 in the assay with SK-MEL-5 is 14.8 µM (inactive); with Malme-3M it was 13.4 µM (inactive); with EKVX it was 13.2 µM (inactive); in the assay with SNB-75, 13.9 µM (inactive); in the assay on A549 it was 8.34 µM (inactive); in the assay with PC-3 it was 11.6 µM (inactive). The GI50 in the assay with SF-268 was 12.6 µM (inactive); in the assay with RPMI-8226 it was 14.1 µM (inactive); in the assay on SK-OV-3, 18.3 µM (inactive); with OVCAR-4 it was 17.1 µM (inactive); in the assay with HT-29, 3.59 µM (inactive); in the assay on MDA-MB-231 it was 21.1 µM (inactive). Besides, the GI50 in the assay on NCI-H460 was 8.77 µM (inactive).

Turning to `O=[N+]([O-])c1ccc2nc3ccccc3cc2c1`, the GI50 was 1.26 µM (inactive) in the assay with OVCAR-8; 3.63 µM (inactive) in the assay on T47D; 2.45 µM (inactive) in the assay with NCI-H226; 1.37 µM with HCT-15; 1.46 µM (inactive) in the assay on MDA-MB-435; 3.1 µM (inactive) in the assay on SK-MEL-5. In addition, the GI50 is 2.9 µM (inactive) in the assay on Malme-3M; 5.31 µM (inactive) in the assay on EKVX; 3.7 µM (inactive) in the assay with SNB-75; 2.5 µM (inactive) in the assay with A549; 1.95 µM (inactive) in the assay with PC-3; 6.44 µM (inactive) in the assay with SF-268. Also, the GI50 in the assay on SK-OV-3 is 4.21 µM (inactive); in the assay on OVCAR-4 it was 2.48 µM (inactive); with HT-29, 2 µM (inactive); in the assay with MDA-MB-231, 2.55 µM (inactive); with SF-539 it was 2.1 µM (inactive); with NCI-H460 it was 3.03 µM (inactive).

On to `Cc1ccc(C)c(N2C(=O)C(=O)c3c(C)ccc(C)c32)c1`, for which the GI50 in the assay on OVCAR-8 is 23.8 µM (inactive); in the assay with T47D, 11.6 µM (inactive); in the assay with NCI-H226, 27.7 µM (inactive); in the assay on SF-295, 22.9 µM (inactive); in the assay with HCT-15, 14.2 µM; in the assay with MDA-MB-435, 21.1 µM (inactive). The GI50 was 14.8 µM (inactive) in the assay on SK-MEL-5; 20.7 µM (inactive) in the assay on Malme-3M; 60.7 µM (inactive) with EKVX; 34.9 µM (inactive) in the assay on SNB-75; 25.7 µM (inactive) in the assay with A549; 23 µM (inactive) with PC-3. The GI50 in the assay on SF-268 was 23.3 µM (inactive); in the assay on SK-OV-3, 47.9 µM (inactive); in the assay on OVCAR-4 it was 18.8 µM (inactive); in the assay on HT-29, 20.8 µM (inactive); in the assay on MDA-MB-231, 16.9 µM (inactive); with SF-539, 16.7 µM (inactive). The GI50 with NCI-H460 was 37.2 µM (inactive).

For the compound `CCOC(=O)c1[nH]c2nc(SC)nc(NC)c2c1N`, the GI50 with OVCAR-8 is > 100 µM (inactive); with T47D it was 83.8 µM (inactive); with NCI-H226, 42.8 µM (inactive); in the assay with SF-295, > 100 µM (inactive); in the assay with HCT-15, 84.1 µM; with MDA-MB-435, > 100 µM (inactive). For the same compound, the GI50 in the assay on SK-MEL-5 was 30.3 µM (inactive); in the assay with Malme-3M it was > 100 µM (inactive); with SNB-75, 70.5 µM (inactive); with A549, > 100 µM (inactive); in the assay with PC-3, > 100 µM (inactive); in the assay with SF-268, > 100 µM (inactive). In addition, the GI50 in the assay with RPMI-8226 was 46 µM (inactive); with SK-OV-3 it was > 100 µM (inactive); with OVCAR-4, > 100 µM (inactive); in the assay on HT-29, 47.3 µM (inactive); in the assay on MDA-MB-231, > 100 µM (inactive); with NCI-H460, 60.4 µM (inactive).

On to `CC(C)C1=CC23CCC4C(C)(C(=O)O)CCCC4(C)C2CC1C1C(=O)N(c2cccc(N4C(=O)C5C6CC7C8(C)CCCC(C)(C(=O)O)C8CCC7(C=C6C(C)C)C5C4=O)c2)C(=O)C13` (stereo not drawn), for which the GI50 is 8.61 µM (inactive) in the assay with OVCAR-8; 16.8 µM (inactive) with T47D; 16.6 µM (inactive) with NCI-H226; 11.4 µM with HCT-15; 4.02 µM (inactive) in the assay on MDA-MB-435; 15.3 µM (inactive) in the assay on SK-MEL-5. The GI50 was 17 µM (inactive) in the assay with Malme-3M; 6.46 µM (inactive) in the assay with EKVX; 14.7 µM (inactive) in the assay on A549; 4.66 µM (inactive) with PC-3; 12 µM (inactive) in the assay on SF-268; 9.35 µM (inactive) in the assay with RPMI-8226. Also, the GI50 with OVCAR-4 was 24 µM (inactive); with HT-29, 3.84 µM (inactive); in the assay on MDA-MB-231, 14.8 µM (inactive); in the assay on SF-539, 9.08 µM (inactive).
